Measured values as given in US8334301B2, “5-Membered heterocyclic compound” (Takeda Pharmaceutical Company Limited, priority 2007, dated 2012).
pIC50: −log10 of the molar value. Counter-ions that a name gives are not always drawn.

Molecular target: T1, H+,K+-ATPase (Sus scrofa, UniProt P19156)
T1 construct: a microsomal fraction of gastric mucosa was prepared from the stomach of swine; from tissue; host or cells: swine stomach, gastric mucosa microsomal fraction
Assay: Proton Potassium-Adenosine Triphosphatase (H+,K+-ATPase) inhibitory activity test
Format: biochemical
Conditions: microsomal fraction of swine gastric mucosa; pH 6.5, 37° C., 10 mmol/L potassium chloride; malachite green colorimetry at 610 nm
Description: Proton Potassium-Adenosine Triphosphatase (H^+,K^+-ATPase) Inhibitory Activity Test
According to the method of Wallmark et al. [Biochim. Biophys. Acta, 728, 31 (1983)], a microsomal fraction of gastric mucosa was prepared from the stomach of swine. First, the stomach was removed, washed with tap water, and immersed in 3 mol/L sodium chloride, and the surface of the mucosa was wiped with a paper towel. The gastric mucosa was removed, minced, and homogenized in a 0.25 mol/L sucrose solution (pH 6.8) containing 1 mmol/L EDTA and 10 mmol/L tris-hydrochloric acid using polytron (Kinematica). The obtained homogenate was centrifuged at 20,000×g for 30 min and the supernatant was centrifuged at 100,000×g for 90 min. The precipitate was suspended in 0.25 mol/L sucrose solution, the suspension was superimposed on a 0.25 mol/L sucrose solution containing 7.5% Ficoll, and centrifuged at 100,000×g for 5 hr. The fraction containing the interface between the both layers was recovered, and centrifugally washed with 0.25 mol/L sucrose solution.
The obtained microsomal fraction was used as an H^+/K^+-ATPase preparation.
To 50 mmol/L HEPES-tris buffer (5 mmol/L magnesium chloride, 10 mmol/L potassium chloride, 10 μmol/L valinomycin, pH=6.5, 40 μL) containing 2.5 μg/mL enzyme preparation based on the protein concentration was added a test compound (5 μL) dissolved in 10% dimethyl sulfoxide solution, and the mixture was incubated at 37° C. for 30 min. A 2 mmol/L adenosine triphosphate tris salt solution (50 mmol/L HEPES-tris buffer (5 mmol/L magnesium chloride, pH 6.5), 5 μL) was added to start an enzyme reaction. The enzyme reaction was performed at 37° C. for 20 min, and then a malachite green solution (a mixture of 0.12% malachite green sulfate (2.5 mol/L) solution, 7.5% ammonium molybdate and 11% Tween 20 at a ratio of 100:25:2, 15 μL) was added to stop the reaction. The reaction mixture was stood at room temperature for 15 min, and the resulting reaction product of inorganic phosphorus and malachite green was measured by colorimetric quantification at a wavelength of 610 nm. In addition, the amount of inorganic phosphoric acid in a reaction solution free of potassium chloride was also measured in the same manner, and the value was extracted from that in the presence of potassium chloride, whereby the H^+,K^+-ATPase activity was measured. The inhibitory rate (%) was determined from the activity value of the control and that at each concentration of the test compound, and 50% inhibitory concentration (IC50) to H^+,K^+-ATPase was determined.

T1 sequence (P19156 2-1034 limits assumed): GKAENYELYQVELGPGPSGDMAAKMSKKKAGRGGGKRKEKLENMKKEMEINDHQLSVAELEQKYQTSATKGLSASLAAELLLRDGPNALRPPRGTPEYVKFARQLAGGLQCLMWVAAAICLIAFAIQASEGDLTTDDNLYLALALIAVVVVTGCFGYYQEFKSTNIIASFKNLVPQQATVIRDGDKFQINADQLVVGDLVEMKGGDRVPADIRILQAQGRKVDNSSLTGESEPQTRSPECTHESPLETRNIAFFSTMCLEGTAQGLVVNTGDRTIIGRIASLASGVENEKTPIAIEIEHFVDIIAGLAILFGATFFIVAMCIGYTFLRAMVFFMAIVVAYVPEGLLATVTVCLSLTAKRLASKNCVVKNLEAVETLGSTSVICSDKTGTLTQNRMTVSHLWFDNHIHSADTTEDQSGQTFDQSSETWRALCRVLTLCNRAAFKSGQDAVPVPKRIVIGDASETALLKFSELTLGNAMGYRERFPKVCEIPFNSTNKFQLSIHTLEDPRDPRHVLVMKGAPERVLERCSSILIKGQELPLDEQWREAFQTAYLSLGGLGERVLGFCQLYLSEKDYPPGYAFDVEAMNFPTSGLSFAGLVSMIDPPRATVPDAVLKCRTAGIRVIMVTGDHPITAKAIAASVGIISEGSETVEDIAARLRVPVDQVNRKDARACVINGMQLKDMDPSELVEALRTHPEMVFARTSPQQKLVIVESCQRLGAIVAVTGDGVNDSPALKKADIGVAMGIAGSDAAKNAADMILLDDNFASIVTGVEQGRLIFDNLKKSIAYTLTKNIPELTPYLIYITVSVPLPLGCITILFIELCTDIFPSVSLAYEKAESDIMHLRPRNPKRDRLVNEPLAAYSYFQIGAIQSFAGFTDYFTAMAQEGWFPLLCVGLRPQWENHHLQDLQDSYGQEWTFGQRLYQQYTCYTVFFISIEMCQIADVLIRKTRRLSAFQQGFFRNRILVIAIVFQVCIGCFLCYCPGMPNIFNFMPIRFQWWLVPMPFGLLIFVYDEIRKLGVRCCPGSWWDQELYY
T1 sequence (P18434 whole entry partner): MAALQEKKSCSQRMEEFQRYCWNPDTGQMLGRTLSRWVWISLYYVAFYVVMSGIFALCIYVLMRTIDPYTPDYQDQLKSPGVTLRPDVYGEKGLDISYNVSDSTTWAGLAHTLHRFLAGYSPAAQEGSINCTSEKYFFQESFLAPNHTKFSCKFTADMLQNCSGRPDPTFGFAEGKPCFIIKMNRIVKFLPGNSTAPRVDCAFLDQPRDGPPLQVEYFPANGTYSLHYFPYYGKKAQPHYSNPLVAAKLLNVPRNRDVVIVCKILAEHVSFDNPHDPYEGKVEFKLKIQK

| Compound | pIC50 |
| --- | --- |
| CNCc1cc(-c2ccccc2F)c(Sc2cccc(OC)c2)s1 [Example 10, 1-{4-(2-fluorophenyl)-5-[(3-methoxyphenyl)thio]-2-thienyl}-N-methylmethanamine fumarate] | 6.77 |
| CNCc1cc(-c2ccccc2F)c([S+]([O-])c2cccc(OC)c2)s1 (stereo not shown) [Example 11, 1-{4-(2-fluorophenyl)-5-[(3-methoxyphenyl)sulfinyl]-2-thienyl}-N-methylmethanamine fumarate] | 6.40 |
| CNCc1cc(-c2cccnc2F)c(Sc2nccs2)s1 [Example 18, 1-{4-(2-fluoropyridin-3-yl)-5-[(1,3-thiazol-2-yl)thio]thiophen-2-yl}-N-methylmethanamine fumarate] | 5.66 |
| CNCc1cc(-c2cccnc2F)c(Sc2ccoc2C)s1 [Example 19, 1-{4-(2-fluoropyridin-3-yl)-5-[(2-methylfuran-3-yl)thio]thiophen-2-yl}-N-methylmethanamine hydrochloride] | 6.66 |

Next, values leading:

| pIC50 | Compound |
| --- | --- |
| 3.51 | CNCc1cn(Cc2ccc(F)cc2)c(-c2ccccc2)n1 [Example 3, 1-[1-(4-fluorobenzyl)-2-phenyl-1H-imidazol-4-yl]-N-methylmethanamine dihydrochloride] |
| 5.85 | CNCc1nc(-c2ccccc2)n(Cc2ccc(F)cc2)c1Cl [Example 6, 1-[5-chloro-1-(4-fluorobenzyl)-2-phenyl-1H-imidazol-4-yl]-N-methylmethanamine oxalate] |
| 7.51 | CNCc1cc(Sc2ccc(Cl)nc2)n(-c2ccccc2Cl)n1 [Example 27, 1-{1-(2-chlorophenyl)-5-[(6-chloropyridin-3-yl)thio]-1H-pyrazol-3-yl}-N-methylmethanamine hydrochloride] |
